The values below come from patent US20220016101A1 (ACADIA Pharmaceuticals Inc., priority 2018, published 2022).

The test system of data set [1] is patients with MDD and an inadequate response to an SSRI or SNRI. Put plainly: HAMD-17 melancholic symptom subscale score (HAMD-6), MDD study. The class given is in vivo, human. Particulars: for HAMD-17 Melancholic Symptom Subscale Score Change from Baseline to Week 5 Mean (SE) / HAMD-17 Melancholic Symptom Subscale Score Change from Baseline to Week 5 Median: 34 mg QD + SSRI/SNRI. The text has this:
“Hamilton Depression Scale 6-item (HAMD-6)” is a subscale derived from the 17-item Hamilton Rating Scale for Depression (HAMD-17). HAMD-6 includes the following items: depressed mood, guilt feelings, work and interests, psychomotor retardation, psychic anxiety, and general somatic symptoms (Bech et al. Acta Psychiatr Scand. 1975, 51(3):161-70).
(§1) All patients continued on their SSRI or SNRI at a stable dose for the duration of the study.
A higher HAMD-17 melancholic symptom subscale score indicates more severe depression […]. The abbreviations are: CI=confidence interval; LSM=least squares mean; MMRM=mixed-effects model for repeated measures; OC=observed cases; SD=standard deviation; SE=standard error. In Stage 1, Baseline=Study Week 0, Weeks 1-5=Study Weeks 1-5; and in Stage 2, Baseline=Study Week 5, Weeks 1-5=Study Weeks 6-10. LSM is from the stage-specific MMRM analysis with the change from baseline as the outcome; treatment group, visit, treatment-by-visit interaction, baseline melancholic symptom subscale score, and baseline melancholic symptom subscale score-by-visit interaction as the factors. An unstructured covariance matrix is used to model the within-subject errors. The denominator degrees of freedom are estimated using the Kenward-Roger approximation. 2-Sided p-value is for treatment difference from the stage-specific MMRM analysis.

For data set [2] the test system is unchanged. The following applies: in vivo.
For data set [3], the system named is adults with Parkinson's disease and depression. Description: CGI-I, open-label study in Parkinson's disease and depression. The class given is in vivo, human. The following applies: interim, first 31 patients. From the text:
“Clinical Global Impression (CGI)” scale is a clinician-rated, 7-point scale that is designed to rate the severity of the subject's depression at the time of assessment using the Investigator's judgment and past experience with subjects who have the same disorder (i.e., depression with anxious distress). “Clinical Global Impression-Improvement (CGI-I)” is a clinician-rated, 7-point scale that is designed to rate the improvement in the subject's depression at the time of assessment, relative to the symptoms at Baseline. “Clinical Global Impression—Severity (CGI-S)” is an assessment of the current severity of the patient's disease.
Subjects can receive treatment as either monotherapy or adjunctively if inadequately controlled with SSRI/SNRI monotherapy. […] Secondary endpoints include Clinical Global Impression (CGI) scales (improvement and severity), Scale of Outcomes in PD-Sleep (SCOPA), and quality of life as measured by EuroQol-5 dimensions-5 levels (EQ-5D-5L).
At approximately 2, 4, and 6 weeks after start of dosing of study drug subjects returned to the clinic for assessments. Safety measures, HAMD-17, C-SSRS (Columbia Suicide Severity Rating Scale), CGI-S(Clinical Global Impression-Severity), and CGI-I (Clinical Global Impression-Improvement) were evaluated at all visits. […]

In data set [4] the target is norepinephrine transporter (Homo sapiens, UniProt P23975). Description: Receptor profile: affinity (Ki) at NET. The class given is binding. The following applies: data on file.
The subject of data set [5] is patients with MDD and an inadequate response to an SSRI or SNRI. Put plainly: HAMD-17 anxiety/somatization subscale score, MDD study. Type of data set: in vivo, human. Particulars: for HAMD-17 anxiety/somatization subscale score LSM (SE) Change from Baseline to Week 5: 34 mg QD + SSRI/SNRI. On the procedure: Key endpoints were change from baseline to the end of each stage for the HAMD-17 total score and SDS score.
as §1
(§2) Clinic visits occurred weekly from Weeks 1 through 10. The MADRS was administered at screening and baseline. The HAMD-17, SDS, CGI, and KSS were administered at baseline and weekly during the study. Other endpoints such as the SF-12 were administered at baseline and Weeks 5 and 10. Treatment response was defined as a reduction of 50% from baseline for the HAMD-17 total score, and remission was defined as a HAMD-17 total score
A higher HAMD-17 anxiety/somatization subscale score indicates more severe depression with anxiety symptoms.

The test system is the same in data set [6]. Description: Karolinska Sleepiness Scale (KSS), MDD study. The class given is in vivo, human. The following applies: Week 5 of Stage 1. The protocol:
“Karolinska Sleepiness Scale (KSS)” is a scale for evaluating subjective sleepiness (Kaida et al. Clinical Neurophysiology 2006, 117, 7, 1574-1581).
as §2

Where [7] appears, read: Stage 1, subgroup baseline subscale score ≥7.
Where [8] appears, read: Stage 2, subgroup baseline subscale score ≥7.

The structures appear in SMILES notation.

As a reminder, the Ki is a dissociation constant, usually derived from enzyme kinetics or from competition with a known ligand. Read a high Ki as weaker binding.

Chain of norepinephrine transporter (P23975 whole entry, species assumed): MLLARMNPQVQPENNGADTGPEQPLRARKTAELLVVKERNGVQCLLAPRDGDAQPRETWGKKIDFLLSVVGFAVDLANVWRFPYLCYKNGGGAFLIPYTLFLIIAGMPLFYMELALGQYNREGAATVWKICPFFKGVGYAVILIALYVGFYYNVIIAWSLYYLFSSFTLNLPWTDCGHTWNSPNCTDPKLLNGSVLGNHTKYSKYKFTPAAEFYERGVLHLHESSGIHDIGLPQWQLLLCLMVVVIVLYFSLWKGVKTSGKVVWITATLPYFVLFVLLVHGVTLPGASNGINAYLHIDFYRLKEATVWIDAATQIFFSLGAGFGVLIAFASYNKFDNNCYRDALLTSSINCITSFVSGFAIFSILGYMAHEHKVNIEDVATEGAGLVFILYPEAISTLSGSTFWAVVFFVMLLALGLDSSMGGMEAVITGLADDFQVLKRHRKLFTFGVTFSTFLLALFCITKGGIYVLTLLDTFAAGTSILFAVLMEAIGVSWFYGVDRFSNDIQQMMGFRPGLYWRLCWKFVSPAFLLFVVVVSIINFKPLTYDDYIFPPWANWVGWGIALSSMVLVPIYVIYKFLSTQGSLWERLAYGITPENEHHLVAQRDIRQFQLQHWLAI

`CC(C)COc1ccc(CNC(=O)N(Cc2ccc(F)cc2)C2CCN(C)CC2)cc1` [pimavanserin, N-(4-Fluorophenylmethyl)-N-(1-methylpiperidin-4-yl)-N′-(4-(2-methylpropyloxy)phenylmethyl)carbamide]: the “HAMD-17 Melancholic Symptom Subscale Score Effect Size (Cohen's d)” value in data set [1] (Stage 1) is 0.558; in data set [1] (Stage 2) it was −0.304. Moreover, the results for the “HAMD-17 Melancholic Symptom Subscale Score Change from Baseline to Week 5 Mean (SE)” value in data set [1] (Stage 1) and in data set [1] (Stage 2) were −6.8 (0.62) and −1.0 (0.46), respectively. Besides, the “HAMD-17 Melancholic Symptom Subscale Score Change from Baseline to Week 5 Median” value in data set [1] (Stage 1) is listed as −8.0; in data set [1] (Stage 2), −1.0. The “deaths reported in the study” value in data set [2] was “no deaths”. Also, in data set [3], the “patients with a CGI-I score of 1 or 2 (very much improved or much improved)” value stood at 54.8%. Besides, the Ki in data set [4] is above 1000 nM. Moreover, the “HAMD-17 anxiety/somatization subscale score Diff in LSM (SE) vs placebo” value was −1.5 (0.41) in data set [5] (Stage 1), −2.2 (0.66) in data set [5] (setting [7]), 0.0 (0.48) in data set [5] (Stage 2) and 0.1 (0.66) in data set [5] (setting [8]). The “HAMD-17 anxiety/somatization subscale score Effect Size (Cohen's d)” value in data set [5] (Stage 1) is reported as 0.634; in data set [5] (setting [7]), 0.781; in data set [5] (Stage 2), −0.007; in data set [5] (setting [8]), −0.067. For the same compound, the “HAMD-17 anxiety/somatization subscale score LSM (SE) Change from Baseline to Week 5” value in data set [5] (Stage 1) is given as −3.7 (0.36); in data set [5] (Stage 1, subgroup baseline anxiety/somatization subscale score ≥7), −5.0 (0.56); in data set [5] (Stage 2) it was −0.6 (0.33); in data set [5] (Stage 2, subgroup baseline anxiety/somatization subscale score ≥7) it was −1.3 (0.44). Moreover, the KSS effect size in data set [6] was determined as 0.627. In data set [6] (daytime sleepiness), the “KSS LSmean difference from baseline for pimavanserin vs. placebo” value is recorded as −1.1 (0.30).
